Experimental data from ChEMBL document CHEMBL4507327 (2021).

Legend:
[1] = target: Mitogen-activated protein kinase 12 (Homo sapiens, UniProt P53778); test: p38gamma(MP12LGP1) Takeda global kinase panel
[2] = target: Interferon-induced, double-stranded RNA-activated protein kinase (Homo sapiens, UniProt P19525); test: PKR(EIK2LGY1) Takeda global kinase panel
[3] = target: GABA-A receptor; anion channel (Rattus norvegicus) (UniProt O09028+P15431+P18506+P18508+P19969+P20236+P23574+P23576+P28471+P28473+P30191+P62813+P63079+P63138+Q91ZM7+Q9ES14); conditions: Compound concentration 10.0 uM
[4] = target: Serine/threonine-protein kinase PAK 6 (Homo sapiens, UniProt Q9NQU5); test: PAK6(PAK6CGY1) Takeda global kinase panel
Chain of Serine/threonine-protein kinase PAK 6 (Q9NQU5 whole entry): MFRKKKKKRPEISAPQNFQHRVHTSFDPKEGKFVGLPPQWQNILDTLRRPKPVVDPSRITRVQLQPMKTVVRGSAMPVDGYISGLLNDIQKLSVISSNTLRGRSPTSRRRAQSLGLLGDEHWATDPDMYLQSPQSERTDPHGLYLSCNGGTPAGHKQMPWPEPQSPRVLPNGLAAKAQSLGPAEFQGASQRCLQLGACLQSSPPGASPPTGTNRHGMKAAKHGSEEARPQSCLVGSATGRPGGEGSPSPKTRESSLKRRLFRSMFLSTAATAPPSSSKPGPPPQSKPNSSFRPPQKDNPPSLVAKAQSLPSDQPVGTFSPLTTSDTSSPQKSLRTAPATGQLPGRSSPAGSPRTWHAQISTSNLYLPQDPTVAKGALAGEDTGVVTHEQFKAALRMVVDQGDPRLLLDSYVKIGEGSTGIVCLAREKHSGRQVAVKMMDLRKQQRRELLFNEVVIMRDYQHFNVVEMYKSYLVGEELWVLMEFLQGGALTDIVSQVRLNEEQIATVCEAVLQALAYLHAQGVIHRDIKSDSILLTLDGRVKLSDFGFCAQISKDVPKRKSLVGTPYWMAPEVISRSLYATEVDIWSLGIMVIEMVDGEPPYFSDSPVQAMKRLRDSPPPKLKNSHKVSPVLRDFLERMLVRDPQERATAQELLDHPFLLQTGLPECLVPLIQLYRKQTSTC

[5] = target: Serine/threonine-protein kinase Nek11 (Homo sapiens, UniProt Q8NG66); test: Nek11(NE11LGRI) Takeda global kinase panel
[6] = target: Serine/threonine-protein kinase MARK2 (Homo sapiens, UniProt Q7KZI7); test: MARK2(MAR2LGY1) Takeda global kinase panel
[7] = target: Serine/threonine-protein kinase PLK1 (Homo sapiens, UniProt P53350); test: PLK1(PLK1LGY1) Takeda global kinase panel
[8] = target: Casein kinase I isoform alpha-like (Homo sapiens, UniProt Q8N752); test: CK1alpha2(C1ALLGI5) Takeda global kinase panel
[9] = target: B1 bradykinin receptor (Homo sapiens) (UniProt P46663); conditions: Compound concentration 10.0 uM
[10] = target: Ephrin type-A receptor 4 (Homo sapiens, UniProt P54764); test: EphA4(EPA4LGF1) Takeda global kinase panel
[11] = target: Dual specificity protein kinase CLK3 (Homo sapiens, UniProt P49761); test: CLK3(CLK3LGY1) Takeda global kinase panel
Chain of Dual specificity protein kinase CLK3 (P49761 whole entry): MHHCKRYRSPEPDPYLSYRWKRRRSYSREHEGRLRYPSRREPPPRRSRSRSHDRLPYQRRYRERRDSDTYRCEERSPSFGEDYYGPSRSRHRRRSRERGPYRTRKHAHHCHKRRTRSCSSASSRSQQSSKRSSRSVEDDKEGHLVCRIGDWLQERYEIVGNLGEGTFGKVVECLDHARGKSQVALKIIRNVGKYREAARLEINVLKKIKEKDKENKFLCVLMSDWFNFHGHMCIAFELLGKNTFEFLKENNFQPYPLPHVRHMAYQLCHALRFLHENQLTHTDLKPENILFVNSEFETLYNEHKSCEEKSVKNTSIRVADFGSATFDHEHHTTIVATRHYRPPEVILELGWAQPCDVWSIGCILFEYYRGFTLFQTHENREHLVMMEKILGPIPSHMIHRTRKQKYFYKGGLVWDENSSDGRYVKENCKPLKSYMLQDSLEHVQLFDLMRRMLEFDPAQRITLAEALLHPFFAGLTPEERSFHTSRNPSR

[12] = target: Serine/threonine-protein kinase BRSK1 (Homo sapiens, UniProt Q8TDC3); test: BRSK1(BRS1LGA1) Takeda global kinase panel
[13] = target: ATP-sensitive inward rectifier potassium channel 11 (Cricetulus griseus) (UniProt A0A3L7HHE1); test: Inhibition of Potassium Channel [KATP] at 10 µM in the Eurofins-Panlabs radioligand binding assay (Eurofins_assay_265600); conditions: Cricetinae; Compound concentration 10.0 uM
[14] = target: Ankyrin repeat and protein kinase domain-containing protein 1 (Homo sapiens, UniProt Q8NFD2); test: SgK288(ANK1LGRL) Takeda global kinase panel
[15] = target: Cyclin-dependent kinase 13 (Homo sapiens, UniProt Q14004); test: CHED(CD13PHS1) Takeda global kinase panel
Chain of Cyclin-dependent kinase 13 (Q14004 whole entry): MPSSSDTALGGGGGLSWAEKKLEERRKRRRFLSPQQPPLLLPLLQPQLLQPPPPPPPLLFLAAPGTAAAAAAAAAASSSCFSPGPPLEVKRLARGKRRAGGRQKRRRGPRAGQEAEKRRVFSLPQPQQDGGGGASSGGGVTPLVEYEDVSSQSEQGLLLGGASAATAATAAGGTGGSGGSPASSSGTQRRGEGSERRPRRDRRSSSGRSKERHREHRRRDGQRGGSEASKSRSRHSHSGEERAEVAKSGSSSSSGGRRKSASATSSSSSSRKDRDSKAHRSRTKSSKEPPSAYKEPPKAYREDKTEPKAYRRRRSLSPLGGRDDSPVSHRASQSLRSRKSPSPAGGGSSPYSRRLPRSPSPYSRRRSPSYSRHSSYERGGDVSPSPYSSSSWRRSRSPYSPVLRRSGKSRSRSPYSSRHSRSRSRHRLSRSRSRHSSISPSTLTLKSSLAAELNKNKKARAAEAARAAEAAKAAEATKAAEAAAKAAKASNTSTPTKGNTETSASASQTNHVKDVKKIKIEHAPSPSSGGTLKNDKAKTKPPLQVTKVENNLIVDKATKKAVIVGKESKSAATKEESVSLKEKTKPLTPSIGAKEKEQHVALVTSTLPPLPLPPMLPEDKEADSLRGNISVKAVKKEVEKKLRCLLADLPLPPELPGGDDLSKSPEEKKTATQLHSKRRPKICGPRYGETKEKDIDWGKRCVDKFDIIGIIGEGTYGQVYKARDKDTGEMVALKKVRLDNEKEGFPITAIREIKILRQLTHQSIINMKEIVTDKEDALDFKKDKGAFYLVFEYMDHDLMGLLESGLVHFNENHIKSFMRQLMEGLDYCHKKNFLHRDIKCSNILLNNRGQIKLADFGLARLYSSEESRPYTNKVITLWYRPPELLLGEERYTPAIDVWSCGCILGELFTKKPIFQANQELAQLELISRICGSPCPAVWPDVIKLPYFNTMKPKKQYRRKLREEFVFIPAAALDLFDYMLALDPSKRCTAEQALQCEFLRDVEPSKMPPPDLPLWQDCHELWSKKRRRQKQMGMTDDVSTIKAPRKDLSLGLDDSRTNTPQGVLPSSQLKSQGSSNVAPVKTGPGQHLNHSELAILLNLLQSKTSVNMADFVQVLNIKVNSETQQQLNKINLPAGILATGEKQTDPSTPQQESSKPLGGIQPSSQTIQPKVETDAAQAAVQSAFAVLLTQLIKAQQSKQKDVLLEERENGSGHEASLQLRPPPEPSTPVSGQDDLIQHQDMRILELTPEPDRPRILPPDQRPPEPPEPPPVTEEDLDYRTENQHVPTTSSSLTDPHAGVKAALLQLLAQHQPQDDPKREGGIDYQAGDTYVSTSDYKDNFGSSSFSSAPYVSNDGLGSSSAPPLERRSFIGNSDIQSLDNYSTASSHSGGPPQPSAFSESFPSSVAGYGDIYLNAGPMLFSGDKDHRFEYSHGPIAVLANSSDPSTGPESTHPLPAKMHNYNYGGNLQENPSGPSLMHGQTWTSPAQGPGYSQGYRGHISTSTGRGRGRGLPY

[16] = target: Tyrosine-protein kinase HCK (Homo sapiens, UniProt P08631); test: HCK(HCK1LGF1) Takeda global kinase panel
[17] = target: Serine/threonine-protein kinase 33 (Homo sapiens, UniProt Q9BYT3); test: STK33(ST33LGF1) Takeda global kinase panel
Chain of Serine/threonine-protein kinase 33 (Q9BYT3 whole entry): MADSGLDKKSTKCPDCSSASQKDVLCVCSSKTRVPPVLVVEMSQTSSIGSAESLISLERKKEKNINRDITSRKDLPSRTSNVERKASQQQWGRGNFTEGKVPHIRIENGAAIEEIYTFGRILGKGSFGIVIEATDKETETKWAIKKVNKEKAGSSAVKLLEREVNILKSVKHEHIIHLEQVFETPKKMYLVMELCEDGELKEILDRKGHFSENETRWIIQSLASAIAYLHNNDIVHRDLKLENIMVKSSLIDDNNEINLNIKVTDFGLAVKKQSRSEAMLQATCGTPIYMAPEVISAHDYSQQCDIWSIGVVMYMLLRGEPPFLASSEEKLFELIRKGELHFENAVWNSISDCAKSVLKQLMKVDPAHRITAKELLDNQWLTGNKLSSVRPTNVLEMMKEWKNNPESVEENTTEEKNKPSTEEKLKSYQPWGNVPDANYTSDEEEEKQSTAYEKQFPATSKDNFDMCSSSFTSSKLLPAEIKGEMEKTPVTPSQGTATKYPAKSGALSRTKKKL

[18] = target: Cyclin-dependent kinase 8 (Homo sapiens, UniProt P49336); test: CDK8(CDK8CGS1) Takeda global kinase panel
[19] = target: Estrogen receptor (Homo sapiens) (UniProt P03372); conditions: Compound concentration 10.0 uM
[20] = target: Dual specificity protein kinase CLK2 (Homo sapiens, UniProt P49760); test: CLK2(CLK2LGF1) Takeda global kinase panel
[21] = species on record: Rattus norvegicus; test: Inhibition of Rolipram at 10 µM in the Eurofins-Panlabs radioligand binding assay (Eurofins_assay_268811); format: protein assay; design: ligand concentration 1.8 nM; conditions: Compound concentration 10.0 uM
[22] = target: High affinity nerve growth factor receptor (Homo sapiens, UniProt P04629); test: TRKA(NTR1LGN1) Takeda global kinase panel
[23] = target: Mu-type opioid receptor (Homo sapiens) (UniProt P35372); conditions: Compound concentration 10.0 uM
[24] = target: Mitogen-activated protein kinase 6 (Homo sapiens, UniProt Q16659); test: ERK3(MAP6LHY1) Takeda global kinase panel
Chain of Mitogen-activated protein kinase 6 (Q16659 whole entry): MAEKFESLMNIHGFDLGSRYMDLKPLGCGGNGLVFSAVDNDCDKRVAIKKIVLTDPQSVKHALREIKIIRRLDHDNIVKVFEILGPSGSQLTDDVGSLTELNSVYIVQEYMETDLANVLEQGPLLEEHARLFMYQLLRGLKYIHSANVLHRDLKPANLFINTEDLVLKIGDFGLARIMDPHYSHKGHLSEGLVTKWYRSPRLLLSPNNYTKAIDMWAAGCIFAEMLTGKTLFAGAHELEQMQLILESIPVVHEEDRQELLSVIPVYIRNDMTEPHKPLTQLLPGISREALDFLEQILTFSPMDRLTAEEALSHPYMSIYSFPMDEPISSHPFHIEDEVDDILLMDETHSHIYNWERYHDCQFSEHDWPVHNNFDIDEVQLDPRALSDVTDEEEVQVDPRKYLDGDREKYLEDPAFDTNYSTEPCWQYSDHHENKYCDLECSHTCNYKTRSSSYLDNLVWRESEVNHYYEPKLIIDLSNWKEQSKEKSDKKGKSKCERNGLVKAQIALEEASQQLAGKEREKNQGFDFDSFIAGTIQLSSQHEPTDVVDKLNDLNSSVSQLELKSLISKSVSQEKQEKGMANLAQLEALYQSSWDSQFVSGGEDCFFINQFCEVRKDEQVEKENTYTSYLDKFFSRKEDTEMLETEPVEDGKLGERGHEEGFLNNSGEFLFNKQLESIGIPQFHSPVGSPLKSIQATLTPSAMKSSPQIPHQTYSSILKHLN

[25] = target: Voltage-dependent N-type calcium channel subunit alpha-1B (Homo sapiens) (UniProt Q00975); test: Inhibition of Calcium Channel N-Type at 10 µM in the Eurofins-Panlabs radioligand binding assay (Eurofins_assay_216000); conditions: Rattus norvegicus; Compound concentration 10.0 uM
[26] = target: Dual specificity protein kinase CLK4 (Homo sapiens, UniProt Q9HAZ1); test: CLK4(CLK4IGF1) Takeda global kinase panel
[27] = target: Microtubule-associated serine/threonine-protein kinase 3 (Homo sapiens, UniProt O60307); test: MAST3(MAS3LGE1) Takeda global kinase panel
[28] = target: T1, Alpha-1A adrenergic receptor (Homo sapiens) (UniProt P35348); test: Inhibition of Adrenergic alpha1A at compound concentration of 10.0 uM in the Eurofins-Panlabs radioligand binding assay (Eurofins_assay_203110); design: ligand concentration 0.25 nM; conditions: Rattus norvegicus; Compound concentration 10.0 uM
T1 sequence (whole entry): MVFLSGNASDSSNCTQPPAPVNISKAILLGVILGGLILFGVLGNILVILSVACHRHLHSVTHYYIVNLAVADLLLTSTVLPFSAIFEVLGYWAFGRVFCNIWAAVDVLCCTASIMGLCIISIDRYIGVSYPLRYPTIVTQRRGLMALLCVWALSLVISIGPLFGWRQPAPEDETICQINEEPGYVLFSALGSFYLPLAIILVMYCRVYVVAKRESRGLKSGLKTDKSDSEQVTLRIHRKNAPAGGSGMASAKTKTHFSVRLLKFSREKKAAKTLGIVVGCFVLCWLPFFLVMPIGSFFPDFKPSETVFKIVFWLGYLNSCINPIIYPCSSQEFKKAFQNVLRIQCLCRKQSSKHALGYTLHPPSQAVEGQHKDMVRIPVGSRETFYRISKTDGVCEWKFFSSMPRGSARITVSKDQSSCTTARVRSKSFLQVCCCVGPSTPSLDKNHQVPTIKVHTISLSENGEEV

[29] = target: 3-phosphoinositide-dependent protein kinase 1 (Homo sapiens, UniProt O15530); test: PDK1(PDP1LGA1) Takeda global kinase panel
[30] = target: Cytoplasmic tyrosine-protein kinase BMX (Homo sapiens, UniProt P51813); test: Etk [BMX(BMX1CGF1)] Takeda global kinase panel
[31] = target: Rho-associated protein kinase 1 (Homo sapiens, UniProt Q13464); test: ROCK1(ROC1LGY1) Takeda global kinase panel
[32] = target: Protein kinase C epsilon type (Homo sapiens, UniProt Q02156); test: PKCepsilon(PRKELHY1) Takeda global kinase panel
[33] = target: Ephrin type-A receptor 8 (Homo sapiens, UniProt P29322); test: EphA8(EPA8LGF1) Takeda global kinase panel
[34] = target: Serine/threonine-protein kinase 26 (Homo sapiens, UniProt Q9P289); test: MST4(MST4LGC1) Takeda global kinase panel
[35] = target: Non-receptor tyrosine-protein kinase TYK2 (Homo sapiens, UniProt P29597); test: Tyk2(TYK2LGF1) Takeda global kinase panel
Chain of Non-receptor tyrosine-protein kinase TYK2 (P29597 whole entry): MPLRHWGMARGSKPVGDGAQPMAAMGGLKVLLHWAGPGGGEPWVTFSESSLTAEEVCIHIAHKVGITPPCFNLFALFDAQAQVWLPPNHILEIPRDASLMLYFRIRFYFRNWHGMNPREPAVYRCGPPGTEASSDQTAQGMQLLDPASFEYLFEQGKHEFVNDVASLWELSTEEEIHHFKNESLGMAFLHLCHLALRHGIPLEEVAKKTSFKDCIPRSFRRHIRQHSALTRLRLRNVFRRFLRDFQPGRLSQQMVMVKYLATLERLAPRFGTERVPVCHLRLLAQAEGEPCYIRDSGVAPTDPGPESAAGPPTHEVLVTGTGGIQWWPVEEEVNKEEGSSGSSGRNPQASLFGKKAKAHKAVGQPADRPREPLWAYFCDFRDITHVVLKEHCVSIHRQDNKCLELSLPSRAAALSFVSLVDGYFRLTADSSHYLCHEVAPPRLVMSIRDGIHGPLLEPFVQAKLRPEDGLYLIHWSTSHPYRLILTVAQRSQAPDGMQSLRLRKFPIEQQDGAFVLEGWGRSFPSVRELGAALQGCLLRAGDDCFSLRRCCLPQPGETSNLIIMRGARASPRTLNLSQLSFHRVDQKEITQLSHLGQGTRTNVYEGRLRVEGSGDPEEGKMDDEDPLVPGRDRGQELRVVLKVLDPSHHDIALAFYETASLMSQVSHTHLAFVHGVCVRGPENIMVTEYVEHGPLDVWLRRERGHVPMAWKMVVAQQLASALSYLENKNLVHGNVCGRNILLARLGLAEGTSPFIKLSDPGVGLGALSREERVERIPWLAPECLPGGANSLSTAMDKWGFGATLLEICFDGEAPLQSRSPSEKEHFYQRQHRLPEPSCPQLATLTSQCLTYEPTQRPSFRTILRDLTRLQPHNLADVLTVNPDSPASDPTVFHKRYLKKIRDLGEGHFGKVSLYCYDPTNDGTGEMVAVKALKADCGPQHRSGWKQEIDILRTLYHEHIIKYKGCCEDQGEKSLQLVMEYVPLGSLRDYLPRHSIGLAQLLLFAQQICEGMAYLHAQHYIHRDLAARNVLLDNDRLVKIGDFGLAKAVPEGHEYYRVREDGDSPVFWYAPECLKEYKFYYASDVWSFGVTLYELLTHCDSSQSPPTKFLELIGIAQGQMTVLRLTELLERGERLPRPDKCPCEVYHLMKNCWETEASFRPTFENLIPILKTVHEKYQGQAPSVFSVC

[36] = target: Tyrosine-protein kinase Fgr (Homo sapiens, UniProt P09769); test: Fgr(FGR1LGF1) Takeda global kinase panel

Row | SMILES | IC50 [1] [nM] | IC50 [2] [nM] | inhibition [3] [%] | IC50 [4] [nM] | IC50 [5] [nM] | IC50 [6] [nM] | IC50 [7] [nM] | IC50 [8] [nM] | inhibition [9] [%] | IC50 [10] [nM] | IC50 [11] [nM] | IC50 [12] [nM] | inhibition [13] [%] | IC50 [14] [nM] | IC50 [15] [nM] | IC50 [16] [nM] | IC50 [17] [nM] | IC50 [18] [nM] | inhibition [19] [%] | IC50 [20] [nM] | further results
1 | CN1C(=O)[C@@H](N2CCc3cn(Cc4ccccc4)nc3C2=O)COc2ccccc21 [TP-030-1] | 1000 | 1000 | 8 | 1000 | 1000 | 1000 | 1000 | 1000 | 2 | 1000 | 1000 | 1000 | 6 | 1000 | 1000 | 1000 | 1000 | 1000 | 36 | 1000 | inhibition [21]: 0%; IC50 [22]: 1000 nM; inhibition [23]: 19%; IC50 [24]: 1000 nM; inhibition [25]: -2%; IC50 [26]: 1000 nM; IC50 [27]: 1000 nM; inhibition [28]: -1%; IC50 [29]: 1000 nM; IC50 [30]: 1000 nM; IC50 [31]: 1000 nM; IC50 [32]: 1000 nM; IC50 [33]: 1000 nM; IC50 [34]: 1000 nM; IC50 [35]: 1000 nM; IC50 [36]: 1000 nM
2 | CN1C(=O)[C@@H](N2CCc3cn(CC4CCS(=O)(=O)CC4)nc3C2=O)COc2ccccc21 [TP-030n] | 1000 | 1000 | 12 | 1000 | 1000 | 1000 | 1000 | 1000 | 9 | 1000 | 1000 | 1000 | 5 | 1000 | 1000 | 1000 | 1000 | 1000 | 5 | 1000 | inhibition [21]: 1%; IC50 [22]: 1000 nM; inhibition [23]: 4%; IC50 [24]: 1000 nM; inhibition [25]: 2%; IC50 [26]: 1000 nM; IC50 [27]: 1000 nM; inhibition [28]: 1%; IC50 [29]: 1000 nM; IC50 [30]: 1000 nM; IC50 [31]: 1000 nM; IC50 [32]: 1000 nM; IC50 [33]: 1000 nM; IC50 [34]: 1000 nM; IC50 [35]: 1000 nM; IC50 [36]: 1000 nM
